Experimental data reported in PubChem BioAssay AID276 (DTP/NCI, 2004).
“And” between values parts separate entries of the source, which are not always exact repeats. Equal values may be shown once. Inconclusive results and toxic doses are left out.

System: B6C3F1 mice, Lewis lung carcinoma iv, survival T/C
Experiment: NCI In Vivo Anticancer Drug Screen. Data for tumor model Lewis Lung Carcinoma (intravenous) in B6C3F1 mice
Conditions: endpoint: median survival time, schedule: Q01DX009 (ip), higher = longer survival
Method in brief: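 T/C ratio derived from survival of compound-treated versus vehicle-treated mice bearing transplantable tumors.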

[1] = dose: 5.0 mg/kg/injection, vehicle: saline with Tween-80
[2] = dose: 10.0 mg/kg/injection, vehicle: saline with Tween-80
[3] = dose: 12.5 mg/kg/injection, vehicle: suspension in saline
[4] = dose: 25.0 mg/kg/injection, vehicle: suspension in saline
[5] = dose: 50.0 mg/kg/injection, vehicle: saline with Tween-80
[6] = dose: 100.0 mg/kg/injection, vehicle: saline with Tween-80
[7] = dose: 200.0 mg/kg/injection, vehicle: saline with Tween-80
[8] = dose: 50.0 mg/kg/injection, vehicle: saline
[9] = dose: 100.0 mg/kg/injection, vehicle: saline
[10] = dose: 200.0 mg/kg/injection, vehicle: saline
[11] = dose: 400.0 mg/kg/injection, vehicle: saline
[12] = dose: 25.0 mg/kg/injection, vehicle: saline with Tween-80
[13] = dose: 25.0 mg/kg/injection, vehicle: Klucel (hydroxypropylcellulose) (HPC)
[14] = dose: 50.0 mg/kg/injection, vehicle: Klucel (hydroxypropylcellulose) (HPC)
[15] = dose: 100.0 mg/kg/injection, vehicle: Klucel (hydroxypropylcellulose) (HPC)
[16] = dose: 12.5 mg/kg/injection, vehicle: Klucel (hydroxypropylcellulose) (HPC)
[17] = dose: 6.25 mg/kg/injection, vehicle: saline with Tween-80
[18] = dose: 12.5 mg/kg/injection, vehicle: saline with Tween-80
[19] = dose: 25.0 mg/kg/injection, vehicle: saline

SMILES: CN1CCN(c2ccc([N+](=O)[O-])c3no[n+]([O-])c23)CC1
- T/C [1]: 120 % of control
- T/C [2]: 111 % of control

SMILES: Cc1ccc2nc(-c3ccc4nc(-c5ccc(N=Nc6ccc(-c7nc8ccc(-c9nc%10ccc(C)c(S(=O)(=O)O)c%10s9)cc8s7)cc6)cc5)sc4c3)sc2c1S(=O)(=O)O
- T/C [3]: 95 % of control
- T/C [4]: 98 % of control
- T/C (dose: 50.0 mg/kg/injection, vehicle: suspension in saline): 107 % of control
- T/C (dose: 100.0 mg/kg/injection, vehicle: suspension in saline): 107 % of control

SMILES: COc1c(C)c2c(c(O)c1C/C=C(\C)CCC(=O)O)C(=O)OC2
- T/C [5]: 91 % of control
- T/C [6]: 91 % of control
- T/C [7]: 98 % of control

SMILES: N#CC(OC1OC(COC2OC(CO)C(O)C(O)C2O)C(O)C(O)C1O)c1ccccc1 (stereo not given)
- T/C (dose: 25.0 mg/kg/injection, vehicle: water): 92 % of control
- T/C (dose: 50.0 mg/kg/injection, vehicle: water): 97 % of control
- T/C (dose: 100.0 mg/kg/injection, vehicle: water): 98 % of control
- T/C (dose: 200.0 mg/kg/injection, vehicle: water): 98 % of control
- T/C (dose: 400.0 mg/kg/injection, vehicle: water): 98 % of control
- T/C (dose: 800.0 mg/kg/injection, vehicle: water): 98 % of control

SMILES: CCOC(=O)CNC(=O)CCCCSc1ncnc2nc[nH]c12
- T/C (dose: 40.0 mg/kg/injection, vehicle: Klucel (hydroxypropylcellulose) (HPC)): 101 % of control
- T/C (dose: 80.0 mg/kg/injection, vehicle: Klucel (hydroxypropylcellulose) (HPC)): 112 % of control
- T/C (dose: 160.0 mg/kg/injection, vehicle: Klucel (hydroxypropylcellulose) (HPC)): 110 % of control
- T/C (dose: 320.0 mg/kg/injection, vehicle: Klucel (hydroxypropylcellulose) (HPC)): 95 % of control
- T/C (dose: 640.0 mg/kg/injection, vehicle: Klucel (hydroxypropylcellulose) (HPC)): 111 % of control

SMILES: O=C(O)C1CC(O)CN1 (stereo not given)
- T/C [8]: 98 % of control
- T/C [9]: 91 % of control
- T/C [10]: 91 % of control
- T/C [11]: 114 % of control
- T/C (dose: 800.0 mg/kg/injection, vehicle: saline): 109 % of control

SMILES: O=C(c1cccnc1)c1cc(-c2ccccn2)c(=O)n2ccccc12
- T/C [12]: 100 % of control
- T/C [5]: 96 % of control
- T/C [6]: 102 % of control
- T/C [7]: 105 % of control
- T/C (dose: 400.0 mg/kg/injection, vehicle: saline with Tween-80): 102 % of control

SMILES: C[C@]12C=CC(=O)C=C1CC[C@@H]1[C@@H]2[C@@H](O)C[C@@]2(C)[C@H]1CC[C@]2(O)C(=O)CO
- T/C [13]: 107 % of control
- T/C [14]: 118 % of control
- T/C [15]: 107 % of control
- T/C (dose: 200.0 mg/kg/injection, vehicle: Klucel (hydroxypropylcellulose) (HPC)): 118 % of control
- T/C (dose: 400.0 mg/kg/injection, vehicle: Klucel (hydroxypropylcellulose) (HPC)): 107 % of control

SMILES: O=C(O)c1cc(Cc2ccc(O)c(C(=O)O)c2)ccc1O (tested in a mixture with another compound)
- T/C (dose: 6.25 mg/kg/injection, vehicle: Klucel (hydroxypropylcellulose) (HPC)): 107 % of control
- T/C [16]: 97 % of control
- T/C [13]: 101 % of control
- T/C [14]: 97 % of control
- T/C [15]: 95 % of control

SMILES: CC1c2ccccc2CC(CCN(C)C)c2ccccc21 (stereo not given)
- T/C [17]: 100 % of control
- T/C [18]: 101 % of control
- T/C [12]: 107 % of control
- T/C [5]: 96 % of control

SMILES: O=[N+]([O-])c1ccc(-n2[nH]nnc2=S)cc1
- T/C [18]: 101 % of control
- T/C [12]: 96 % of control
- T/C [5]: 103 % of control
- T/C [6]: 95 % of control
- T/C [7]: 94 % of control

SMILES: CCC1=C2C(=O)c3ccccc3C2=C(C)S(=O)(=O)O1
- T/C (dose: 3.12 mg/kg/injection, vehicle: saline with Tween-80): 104 % of control
- T/C [17]: 99 % of control
- T/C [18]: 97 % of control
- T/C [12]: 107 % of control

SMILES: Cc1c(N)nc([C@H](CC(N)=O)NC[C@H](N)C(N)=O)nc1C(=O)N[C@H](C(=O)N[C@H](C)[C@@H](O)[C@H](C)C(=O)N[C@H](C(=O)NCCc1nc(-c2nc(C(=O)NCCC[S+](C)C)cs2)cs1)[C@@H](C)O)C(OC1OC(CO)C(O)C(O)C1OC1OC(CO)C(O)C(OC(N)=O)C1O)c1cnc[nH]1 (stereo not given in full)
- T/C (dose: 1.0 mg/kg/injection, vehicle: saline): 113 % of control
- T/C (dose: 2.0 mg/kg/injection, vehicle: saline): 97 % of control and 104 % of control and 112 % of control

SMILES: CCCCCCCCCCCCCCCCCCOCC(COP(=O)([O-])OCC[N+](C)(C)C)OC (stereo not given)
- T/C (dose: 6.25 mg/kg/injection, vehicle: suspension in saline): 96 % of control
- T/C [3]: 99 % of control
- T/C [4]: 100 % of control

SMILES: COc1cc2c(c(OC)c1OC)-c1c(cc3c(c1OC)OCO3)CC(C)C(C)(O)C2OC(=O)c1ccccc1 (stereo not given)
- T/C (dose: 6.25 mg/kg/injection, vehicle: saline + alcohol): 93 % of control
- T/C (dose: 12.5 mg/kg/injection, vehicle: saline + alcohol): 96 % of control
- T/C (dose: 25.0 mg/kg/injection, vehicle: saline + alcohol): 107 % of control
- T/C (dose: 50.0 mg/kg/injection, vehicle: saline + alcohol): 102 % of control
- T/C (dose: 100.0 mg/kg/injection, vehicle: saline + alcohol): 106 % of control
- T/C (dose: 200.0 mg/kg/injection, vehicle: saline + alcohol): 103 % of control

SMILES: CN(C)c1ccc2c(NCCCCCCNc3ccnc4cc(N(C)C)ccc34)ccnc2c1
- T/C (dose: 1.56 mg/kg/injection, vehicle: distilled water + Tween-80 + alcohol): 97 % of control
- T/C (dose: 3.12 mg/kg/injection, vehicle: distilled water + Tween-80 + alcohol): 106 % of control
- T/C (dose: 6.25 mg/kg/injection, vehicle: distilled water + Tween-80 + alcohol): 111 % of control
- T/C (dose: 12.5 mg/kg/injection, vehicle: distilled water + Tween-80 + alcohol): 97 % of control
- T/C (dose: 25.0 mg/kg/injection, vehicle: distilled water + Tween-80 + alcohol): 116 % of control

SMILES: O=NN(CCF)C(=O)NC1CCCCC1
- T/C (dose: 2.5 mg/kg/injection, vehicle: saline with Tween-80): 109 % of control
- T/C (dose: 3.12 mg/kg/injection, vehicle: Klucel (hydroxypropylcellulose) (HPC)): 107 % of control
- T/C [1]: 109 % of control
- T/C [2]: 155 % of control
- T/C [16]: 269 % of control and 291 % of control
- T/C (dose: 20.0 mg/kg/injection, vehicle: saline with Tween-80): 229 % of control
- T/C [13]: 227 % of control

SMILES: CCCCNc1ccc2nnc(C)n2n1
- T/C (dose: 50.0 mg/kg/injection, vehicle: DMSO): 100 % of control
- T/C (dose: 100.0 mg/kg/injection, vehicle: DMSO): 100 % of control
- T/C (dose: 200.0 mg/kg/injection, vehicle: DMSO): 102 % of control

SMILES: CCCCCCCCCCCCN1C(C)=CS/C1=C\C=C\c1scc(C)[n+]1CCCCCCCCCCCC
- T/C (dose: 1.56 mg/kg/injection, vehicle: saline with Tween-80): 90 % of control

SMILES: CCCC(=O)O
- T/C (dose: 12.5 mg/kg/injection, vehicle: saline): 123 % of control
- T/C [19]: 109 % of control
- T/C [8]: 114 % of control
- T/C [9]: 106 % of control
- T/C [10]: 98 % of control

SMILES: O=C1CCC(=O)N1CO
- T/C [19]: 94 % of control
- T/C [8]: 98 % of control
- T/C [9]: 94 % of control
- T/C [10]: 103 % of control
- T/C [11]: 106 % of control
